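Growth conditions: 96-well plates. Treatment: test compound, 48 hours, 5 concentrations. Analysis: linear interpolation between bracketing concentrations; unreached endpoints set to highest concentration. Definition used: TGI = concentration required for complete inhibition of growth.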
How the values were obtained:
Test in all cases: NCI tumour cell line growth inhibition, 48 h
[1] = test system: 786-0 renal
[2] = test system: A498 renal
[3] = test system: A549 NSCLC
[4] = test system: ACHN renal
[5] = test system: BT-549 breast
[6] = test system: CAKI-1 renal
[7] = test system: CCRF-CEM leukemia
[8] = test system: COLO 205 colon
[9] = test system: EKVX NSCLC
[10] = test system: HCC-2998 colon
[11] = test system: HCT-116 colon
[12] = test system: HCT-15 colon
[13] = test system: HOP-62 NSCLC
[14] = test system: HT29 colon
[15] = test system: IGROV1 ovarian
[16] = test system: K-562 leukemia
[17] = test system: KM12 colon
[18] = test system: LOX IMVI melanoma
[19] = test system: M14 melanoma
[20] = test system: MALME-3M melanoma
[21] = test system: MCF7 breast
[22] = test system: MDA-MB-231 breast
[23] = test system: MDA-MB-435
[24] = test system: MDA-N
[25] = test system: MOLT-4 leukemia
[26] = test system: NCI-H226 lung
[27] = test system: NCI-H23 lung
[28] = test system: NCI-H522 lung
[29] = test system: NCI/ADR-RES ovarian
[30] = test system: OVCAR-3 ovarian
[31] = test system: OVCAR-4 ovarian
[32] = test system: OVCAR-5 ovarian
[33] = test system: OVCAR-8 ovarian
[34] = test system: PC-3 prostate
[35] = test system: SF-295 CNS
[36] = test system: SF-539 CNS
[37] = test system: SK-MEL-2 melanoma
[38] = test system: SK-MEL-28 melanoma
[39] = test system: SK-MEL-5 melanoma
[40] = test system: SK-OV-3 ovarian
[41] = test system: SN12C renal
[42] = test system: SNB-75 CNS
[43] = test system: SR leukemia
[44] = test system: SW-620 colon
[45] = test system: T-47D breast
[46] = test system: TK-10 renal
[47] = test system: U251 CNS
[48] = test system: UACC-257 melanoma
[49] = test system: UACC-62 melanoma
[50] = test system: UO-31 renal
[51] = test system: HL-60(TB) leukemia
[52] = test system: HOP-92 NSCLC
[53] = test system: HS 578T breast
[54] = test system: NCI-H460 lung
[55] = test system: RPMI-8226 leukemia
[56] = test system: RXF 393 renal
[57] = test system: SNB-19 CNS
[58] = test system: DU-145 prostate
[59] = test system: SF-268 CNS

Measured: TGI

CC1CC/C(=C\c2ccc(N(C)C)cc2)C(=O)/C1=C/c1ccc(N(C)C)cc1 (configuration not stated)
> 100 µM: [1] | [2] | [3] | [4] | [5] | [6] | [7] | [8] | [9] | [10] | [11] | [12] | [13] | [14] | [15] | [16] | [17] | [18] | [19] | [20] | [21] | [22] | [23] | [24] | [25] | [26] | [27] | [28] | [29] | [30] | [31] | [32] | [33] | [34] | [35] | [36] | [37] | [38] | [39] | [40] | [41] | [42] | [43] | [44] | [45] | [46] | [47] | [48] | [49] | [50]

O=[N+]([O-])c1nccn1CC1OC(n2ccnc2[N+](=O)[O-])C(O)C(O)C1O (configuration not stated)
> 100 µM: [1] | [2] | [3] | [4] | [5] | [7] | [8] | [9] | [10] | [11] | [51] | [13] | [52] | [53] | [14] | [16] | [17] | [19] | [20] | [21] | [24] | [25] | [26] | [27] | [54] | [32] | [33] | [34] | [55] | [56] | [37] | [38] | [39] | [57] | [42] | [43] | [44] | [45] | [46] | [47] | [48] | [49] | [50]

NC1CNC(=O)c2cscc21 (configuration not stated)
> 100 µM: [1] | [2] | [3] | [4] | [5] | [6] | [7] | [8] | [58] | [9] | [10] | [11] | [12] | [51] | [52] | [53] | [14] | [15] | [16] | [17] | [18] | [19] | [20] | [21] | [23] | [24] | [25] | [27] | [54] | [28] | [29] | [30] | [31] | [32] | [34] | [55] | [56] | [59] | [35] | [38] | [39] | [41] | [57] | [43] | [44] | [47] | [48] | [49] | [50]

CN1C(=O)C(O)CC1c1cccc(F)c1 (configuration not stated)
> 100 µM: [1] | [2] | [3] | [4] | [5] | [6] | [7] | [8] | [58] | [9] | [10] | [11] | [12] | [51] | [13] | [52] | [14] | [15] | [16] | [17] | [18] | [19] | [20] | [21] | [22] | [23] | [24] | [25] | [26] | [27] | [54] | [28] | [29] | [30] | [31] | [32] | [33] | [34] | [55] | [56] | [35] | [36] | [37] | [38] | [39] | [40] | [41] | [57] | [42] | [43] | [44] | [47] | [48] | [49] | [50]

From PubChem BioAssay (NCI)
